Assay results: patent US20260097047A1, “Small molecule inhibitors of the ribosome biogenesis factor NVL2” (Board of Regents, The University of Texas System, priority 2023, published 2026)

System: HCT116 cells
Experiment: Cell viability assay (CellTiter-Glo, 72 hours) in HCT116 human colorectal cancer cells
Type: cell-based
Conditions: Homo sapiens, HCT-116; Table 5; HCT116, 72 hours; read-out: Activity
Protocol: Cell culture: The HCT116 cell line was obtained from ATCC and cultured in Dulbecco's Modified Eagle's Medium (DMEM)-high glucose (Sigma Aldrich #D5796) supplemented with 10% fetal bovine serum (FBS) (Sigma-Aldrich #F2442) and 2 mM L-Glutamine (Sigma Aldrich #G7513). Cells were cultured at 37° C. in 5% CO2. The identity of all cell lines was confirmed by short tandem repeat (STR) analysis and confirmed to be mycoplasma-free using a PCR based assay (Genatlantis).
Cell viability assay: In 96-well assay plates (Corning #2903), 2,000 cells were plated per well in 100 μL of medium and allowed to adhere overnight. The next day, compounds suspended in DMSO were dispensed to the assayed wells using a D300e Digital Dispenser (Tecan). All wells were normalized to 0.5% DMSO. 72 hours after incubation at 37° C. in 5% CO2, cell viability was assayed using an ATP-based luminescent viability assay, CellTiter-Glo (Promega #G8462). Substrate was mixed 1:1 with phosphate-buffered saline (PBS) supplemented with 1% Triton X-100, and 40 μL of this mixture was added to the assay wells. Plates were shaken on a microplate shaker for 10 minutes at room temperature. Luminescence (CellTiter-Glo) was recorded using a Synergy 2 microplate reader (BioTek). In Prism 9 software (GraphPad), ten-point dose response curves were plotted with baseline-correction to the vehicle control well, and IC50 values were calculated by curve fitting using asymmetric (five parameter), least squares fit.

IC50 [nM]	SMILES
500 to 1000	CCC/C=C/CN1C(=O)c2ccccc2Sc2cc(Nc3ccccn3)ccc21 [(E)-10-(Hex-2-en-1-yl)-7-(pyridin-2-ylamino)dibenzo[b,f][1,4]thiazepin-11 (10H)-one]
< 500	CC#CCN1C(=O)c2ccccc2Sc2cc(Nc3cc(C#N)ncn3)ccc21 [6-((10-(But-2-yn-1-yl)-11-oxo-10,11-dihydrodibenzo[b,f][1,4]thiazepin-7-yl)amino)pyrimidine-4-carbonitrile]
< 500	CC#CCN1C(=O)c2ccc(C#N)cc2Sc2cc(Nc3ncc(C#N)cc3C)ccc21 [10-(But-2-yn-1-yl)-7-((5-cyano-3-methylpyridin-2-yl)amino)-11-oxo-10,11-dihydrodibenzo[b,f][1,4]thiazepine-3-carbonitrile]
< 500	CC#CCN1C(=O)c2ccccc2Sc2cc(Nc3ncc(C)cc3F)ccc21 [10-(But-2-yn-1-yl)-7-((3-fluoro-5-methylpyridin-2-yl)amino)dibenzo[b,f][1,4]thiazepin-11 (10H)-one]
< 500	CC#CCN1C(=O)c2ccccc2Sc2cc(Nc3ncccc3C(F)(F)F)ccc21 [10-(But-2-yn-1-yl)-7-((3-(trifluoromethyl)pyridin-2-yl)amino)dibenzo[b,f][1,4]thiazepin-11 (10H)-one]
< 500	CC#CCN1C(=O)c2ccccc2Sc2cc(Nc3ncc(C#N)cc3C)ccc21 [6-((10-(But-2-yn-1-yl)-11-oxo-10,11-dihydrodibenzo[b,f][1,4]thiazepin-7-yl)amino)-5-methylnicotinonitrile]

Same assay, conditions: Homo sapiens, HCT-116; Table 6; HCT116, 72 hours; read-out: Activity

IC50 [nM]	SMILES
< 500	CC#CCN1C(=O)c2ccccc2Sc2cc(NC3CC(CO)C3)ccc21 (stereo not shown) [Table 6: —CH2CCMe; 3-HOCH2-cBu; CH/CH; S, 10-(But-2-yn-1-yl)-7-((3-(hydroxymethyl)cyclobutyl)amino)dibenzo[b,f][1,4]thiazepin-11 (10H)-one]
1000 to 5000	CC#CCN1C(=O)c2ccccc2Sc2cc(NCC3COC3)ccc21 [10-(But-2-yn-1-yl)-7-((oxetan-3-ylmethyl)amino)dibenzo[b,f][1,4]thiazepin-11 (10H)-one]

Same assay, conditions: Table 1; HCT116, 72 hours; read-out: Activity

IC50 [nM]	SMILES
< 500	CC#CCN1C(=O)c2ccccc2Sc2cc(NC(=O)N3CCCCC3)ccc21

Same assay, conditions: Table 2; HCT116, 72 hours; read-out: Activity

IC50 [nM]	SMILES
< 500	CC#CCN1C(=O)c2ccccc2Sc2cc(NC(=S)N3CCC3)ccc21 [Table 2: —CH2CCMe; azetidin-1-yl; CH; CH]

Same assay, conditions: Table 3; HCT116, 72 hours; read-out: Activity

IC50 [nM]	SMILES
< 500	CC#CCN1C(=O)c2ccccc2Sc2cc(NC(=O)Nc3cccc(OC)c3)ccc21 [Table 3: —CH2CCMe; 3-MeOPh; CH/CH]
< 500	CC#CCN1C(=O)c2ccccc2Sc2cc(NC(=O)NC34CC(OC)(C3)C4)cnc21

Same assay, conditions: Table 4; HCT116, 72 hours; read-out: Activity

IC50 [nM]	SMILES
< 500	CC#CCN1C(=O)c2ccccc2Sc2cc(NC(=S)N[C@H]3C[C@@H](OC)C3)ccc21 [Table 4: —CH2CCMe; cis-3-MeOcBu; CH]

Same assay, conditions: Table 5; HCT116, 72 hours; read-out: Activity

IC50 [nM]	SMILES
< 500	CC=CCN1C(=O)c2ccccc2Sc2cc(Nc3nccnc3C)ccc21
< 500	CC#CCN1C(=O)c2ccccc2Sc2cc(Nc3cc(C)cnn3)cnc21
< 500	CC#CCN1C(=O)c2ccccc2Sc2cc(Nc3nnccc3C)cnc21
< 500	C#CCN1C(=O)c2ccccc2Sc2cc(Nc3nc(C)cnc3C)ccc21

Same assay, conditions: Table 6; HCT116, 72 hours; read-out: Activity

IC50 [nM]	SMILES
< 500	CC#CCN1C(=O)c2ccccc2Sc2cc(NC3CC(OC)C3)cnc21 (stereo not shown) [Table 6: —CH2CCMe; 3-MeOcBu; CH/N; S]
< 500	CC#CCN1C(=O)c2ccccc2Sc2cc(NC3CC4(CC(O)C4)C3)cnc21 (stereo not shown)
< 500	CC#CCN1C(=O)c2ccccc2Cc2cc(NCCCO)ccc21 [Table 6: —CH2CCMe; (CH2)3 OH; CH/CH; CH2]
< 500	O=C1c2ccccc2Sc2cc(NC3COC3)ccc2N1CC#CCl [Table 6: —CH2CCCl; oxetan-3-yl; CH/CH; S]
< 500	CC#CCN1C(=O)c2ccccc2Sc2cc(NC3CC(COC)C3)ccc21 (stereo not shown)
< 500	CC#CCN1C(=O)c2ccccc2Sc2cc(NC3COC3)cnc21 [Table 6: —CH2CCMe; oxetan-3-yl; CH/N; S]
< 500	CC#CCN1C(=O)c2ccccc2Sc2cc(NC3CC(CO)C3)cnc21 (stereo not shown) [Table 6: —CH2CCMe; 3-HOCH2-cBu; CH/N; S]
< 500	CC#CCN1C(=O)c2ccccc2Cc2cc(NC34CC(OC)(C3)C4)ccc21
< 500	CC#CCN1C(=O)c2ccccc2Sc2cc(NC34CC(OC)(C3)C4)cnc21

Same assay, conditions: Table 7; cell viability assay, CellTiter-Glo, 72 hours; scaffold drawing 42 with R^2, R^3, X/Y, Z; read-out: Activity

IC50 [nM]	SMILES
500 to 1000	COCCN1C(=O)c2ccccc2Sc2cc(NC(=O)c3cccc(C(=O)N(C)C)c3)ccc21 [—(CH2)2OMe; 3-Me2NC(O)Ph; CH/CH; S]
< 500	CCCOCCN1C(=O)c2ccccc2Sc2cc(NC(=O)c3ccc(OC)cc3)ccc21 [—(CH2)2OPr; 4-MeOPh; CH/CH; S]
1000 to 5000	COCCN1C(=O)c2ccccc2Sc2cc(NC(=O)C3CCOCC3)ccc21
< 500	COCCN1C(=O)c2ccccc2Sc2cc(NC(=O)c3ccc(OCF)cc3)ccc21 [—(CH2)2OMe; 4-FH2COPh; CH/CH; S]
< 500	C=CCN1C(=O)c2ccccc2Sc2cc(NC(=O)c3ccoc3)ccc21 [—CH2CH═CH2; furan-3-yl; CH/CH; S]
1000 to 5000	COCCN1C(=O)c2ccccc2Sc2cc(NC(=O)c3ccc(CN)cc3)ccc21 [—(CH2)2OMe; 4-(NH2CH2)Ph; CH/CH; S]

Same assay, conditions: Table 8; analogs of scaffold drawing 43 defined by R^2, R^3, X/Y, W; read-out: Activity (IC50 class, cell viability assay)

IC50 [nM]	SMILES
< 500	COCC1CC(C(=O)Nc2ccc3c(c2)Sc2ccccc2C(=O)N3CC#CC(F)(F)F)C1 (stereo not shown) [—CH2CCCF3; 3-MeOCH2-cBu; CH/CH; CH]
< 500	O=C(Nc1cnc2c(c1)Sc1ccccc1C(=O)N2CC#CC1CC1)[C@@H]1C[C@H]1CO (relative stereo) [—CH2CC^cPr; trans-2-HOCH2-cPr; CH/CH; N]
< 500	CO[C@H]1C[C@H](C(=O)Nc2cnc3c(c2)Sc2ccccc2C(=O)N3CC#CC(F)(F)F)C1 [—CH2CCCF3; trans-3-MeOcBu; CH/CH; N]
< 500	CC#CCN1C(=O)c2cc(F)ccc2Sc2cc(NC(=O)C3CC4(CC(=NO)C4)C3)ccc21 (stereo not shown)
< 500	CC#CCN1C(=O)c2ccccc2Sc2cc(NC(=O)c3cccc(CCC#N)c3)ccc21 [—CH2CCMe; 3-(2′-CNEt)Ph; CH/CH; CH]
< 500	CC#CCN1C(=O)c2ccccc2Sc2cc(NC(=O)C#CC)ccc21 [—CH2CCMe; CCMe; CH/CH; CH]
< 500	CC#CCN1C(=O)c2ccccc2Sc2cc(NC(=O)c3ccc(OC)cc3)ccc21 [—CH2CCMe; 4-MeOPh; CH/CH; CH]
< 500	CC#CCN1C(=O)c2ccc(Cl)cc2Sc2cc(NC(=O)NCCOC)ccc21 [—CH2CCMe; NH(CH2)2OMe; CCl/CH; CH]
< 500	CON=C1CC2(C1)CC(C(=O)Nc1cnc3c(c1)Sc1ccc(F)cc1C(=O)N3CC#CC1CC1)C2 (stereo not shown)
< 500	CC#CCN1C(=O)c2ccc(Cl)cc2Sc2cc(NC(=O)CC3COC3)cnc21 [—CH2CCMe; (oxetan-3-yl)CH2; CCl/CH; N]
< 500	CC12CC(C(=O)Nc3cnc4c(c3)Sc3ccccc3C(=O)N4CC#CC3CC3)(C1)C2
< 500	CC#CCN1C(=O)c2ccccc2Sc2cc(NC(=O)C3CCCC3)cnc21 [—CH2CCMe; cPent; CH/CH; N]
< 500	CC#CCN1C(=O)c2cc(F)ccc2Sc2cc(NC(=O)C34CC(OC)(C3)C4)cnc21
< 500	O=C(Nc1ccc2c(c1)Sc1ccc(F)cc1C(=O)N2CC#CC1CC1)C1CC2(COC2)C1
< 500	COC12CC(C(=O)Nc3cnc4c(c3)Sc3ccccc3C(=O)N4CC#CC(F)(F)F)(C1)C2
< 500	CC#CCN1C(=O)c2ccccc2Sc2cc(NC(=O)[C@H]3C[C@@H](O)C3)ccc21 [—CH2CCMe; cis-3-OH-cBu; CH/CH; CH]

SMILES	IC50 [nM]
CC#CCN1C(=O)c2ccc(F)cc2Sc2cc(NC(=O)c3ccc4oc(=O)n(C)c4c3)ccc21	< 500
CC#CCN1C(=O)c2cc(F)ccc2Sc2cc(NC(=O)C3CCOC3)cnc21 (stereo not shown) [—CH2CCMe; tetrahydrofuran-3-yl; CH/CF; N]	< 500

Same assay, conditions: Table 9; HCT116, 72 hours; read-out: Activity

IC50 [nM]	SMILES
< 500	CC#CCN1C(=O)c2ccccc2Cc2cc(NC(=O)[C@H]3C[C@@H](OC)C3)ccc21 [Table 9: —CH2CCMe; cis-3-MeOcBu; CH2]
< 500	CC#CCN1C(=O)c2ccccc2C(C)c2cc(NC(=O)CCCOC)ccc21 (stereo not shown) [Table 9: —CH2CCMe; (CH2)3OMe; CHMe]
< 500	CC#CCN1C(=O)c2ccccc2C(C#N)c2cc(NC(=O)C34CC(OC)(C3)C4)ccc21 (stereo not shown)
< 500	CC#CCN1C(=O)c2ccccc2C(C)c2cc(NC(=O)C34CC(OC)(C3)C4)ccc21 (stereo not shown)
< 500	C#CCN1C(=O)c2ccccc2C(C#N)c2cc(NC(=O)[C@H]3C[C@H](OC)C3)ccc21 (stereo partly drawn) [Table 9: —CH2CCH; trans-3-MeOcBu; CHCN]
< 500	CC#CCN1C(=O)c2ccccc2C(C)c2cc(NC(=O)C34CC(O)(C3)C4)ccc21 (stereo not shown)
< 500	CC1c2ccccc2C(=O)N(CC#CC2CC2)c2ccc(NC(=O)C3CC(O)C3)cc21 (stereo not drawn) [Table 9: —CH2CC^cPr; cis-3-OH-cBu; CHMe]
< 500	C#CCN1C(=O)c2ccccc2C(C#N)c2cc(NC(=O)C3CC(COC)C3)ccc21 (stereo not shown) [Table 9: —CH2CCH; 3-MeOCH2-cBu; CHCN]
